Peptide text beside a SMILES is read from it. * marks the point of attachment. Cbz = O=C(OCc1ccccc1)*; CH2F = FC*
What was measured:
Conditions in all cases: FIGS. 6-7
[1] = system: UL36; test: Western blot screen for inhibitors: anti-HA blot of UL36 bound to HA tagged Ub-VME probe; type: binding, HSV-1
Excerpt: FIGS. 6-7 is a series photographs showing the results of a screen for inhibitors of the Herpes deubiquitinating enzyme. The photographs show the results of Western blot assays: anti-HA blots for detecting UL36 bound to the HA tagged Ub-VME probe.

[2] = target: T1, UCH-1 (Homo sapiens, UniProt P09936); test: Western blot inhibitor screen, HA tagged Ub-VME probe, other enzymes; type: binding
T1 sequence (P09936 1-223): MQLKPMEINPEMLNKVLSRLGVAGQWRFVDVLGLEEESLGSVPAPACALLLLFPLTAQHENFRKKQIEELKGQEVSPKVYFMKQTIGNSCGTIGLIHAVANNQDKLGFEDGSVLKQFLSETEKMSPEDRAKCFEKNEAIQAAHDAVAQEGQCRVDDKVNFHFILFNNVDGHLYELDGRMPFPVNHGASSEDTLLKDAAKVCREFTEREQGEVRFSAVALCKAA

[3] = target: T2, UCH-3 (Homo sapiens, UniProt P15374); test: as above; type: binding
T2 sequence (P15374 1-230): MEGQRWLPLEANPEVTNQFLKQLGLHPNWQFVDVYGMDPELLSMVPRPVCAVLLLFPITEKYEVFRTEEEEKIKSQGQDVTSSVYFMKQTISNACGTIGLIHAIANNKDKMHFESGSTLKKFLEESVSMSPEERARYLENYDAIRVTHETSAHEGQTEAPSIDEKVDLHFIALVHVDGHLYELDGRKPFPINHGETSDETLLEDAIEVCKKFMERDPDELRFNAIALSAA

[4] = target: USP7 (Homo sapiens, UniProt Q93009); test: as above; type: binding
Chain of USP7 (Q93009 whole entry, species assumed): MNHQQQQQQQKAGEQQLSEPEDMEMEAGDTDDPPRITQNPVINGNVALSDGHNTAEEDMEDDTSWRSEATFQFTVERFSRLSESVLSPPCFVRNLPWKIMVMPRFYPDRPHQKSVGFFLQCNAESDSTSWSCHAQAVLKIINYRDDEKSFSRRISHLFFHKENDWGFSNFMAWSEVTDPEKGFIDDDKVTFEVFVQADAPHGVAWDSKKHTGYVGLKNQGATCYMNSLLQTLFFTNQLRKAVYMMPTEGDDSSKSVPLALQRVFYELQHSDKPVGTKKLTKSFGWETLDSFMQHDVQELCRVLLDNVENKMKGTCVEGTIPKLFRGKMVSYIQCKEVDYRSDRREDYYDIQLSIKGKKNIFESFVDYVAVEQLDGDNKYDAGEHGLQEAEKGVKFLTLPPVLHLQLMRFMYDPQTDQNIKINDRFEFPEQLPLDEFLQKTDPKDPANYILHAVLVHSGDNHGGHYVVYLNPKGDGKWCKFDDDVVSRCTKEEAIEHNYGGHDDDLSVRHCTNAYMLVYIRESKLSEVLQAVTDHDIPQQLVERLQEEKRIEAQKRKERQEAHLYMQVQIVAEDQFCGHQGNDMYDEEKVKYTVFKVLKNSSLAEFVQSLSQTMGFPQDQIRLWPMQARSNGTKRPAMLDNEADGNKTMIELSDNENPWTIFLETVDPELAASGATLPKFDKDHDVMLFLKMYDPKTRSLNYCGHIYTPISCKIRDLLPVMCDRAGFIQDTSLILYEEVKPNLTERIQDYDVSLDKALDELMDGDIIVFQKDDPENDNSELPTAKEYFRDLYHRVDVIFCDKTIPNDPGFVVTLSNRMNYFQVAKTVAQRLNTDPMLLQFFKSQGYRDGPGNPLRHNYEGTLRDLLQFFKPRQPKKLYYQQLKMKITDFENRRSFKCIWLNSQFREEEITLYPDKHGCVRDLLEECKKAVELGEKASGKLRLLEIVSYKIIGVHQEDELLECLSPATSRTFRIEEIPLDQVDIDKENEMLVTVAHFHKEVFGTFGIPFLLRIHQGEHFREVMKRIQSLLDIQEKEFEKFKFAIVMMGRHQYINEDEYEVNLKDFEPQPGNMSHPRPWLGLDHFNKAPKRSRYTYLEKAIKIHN

[5] = target: T3, Cezanne (Homo sapiens, UniProt Q6GQQ9); test: as above; type: binding
T3 sequence (Q6GQQ9 1-843): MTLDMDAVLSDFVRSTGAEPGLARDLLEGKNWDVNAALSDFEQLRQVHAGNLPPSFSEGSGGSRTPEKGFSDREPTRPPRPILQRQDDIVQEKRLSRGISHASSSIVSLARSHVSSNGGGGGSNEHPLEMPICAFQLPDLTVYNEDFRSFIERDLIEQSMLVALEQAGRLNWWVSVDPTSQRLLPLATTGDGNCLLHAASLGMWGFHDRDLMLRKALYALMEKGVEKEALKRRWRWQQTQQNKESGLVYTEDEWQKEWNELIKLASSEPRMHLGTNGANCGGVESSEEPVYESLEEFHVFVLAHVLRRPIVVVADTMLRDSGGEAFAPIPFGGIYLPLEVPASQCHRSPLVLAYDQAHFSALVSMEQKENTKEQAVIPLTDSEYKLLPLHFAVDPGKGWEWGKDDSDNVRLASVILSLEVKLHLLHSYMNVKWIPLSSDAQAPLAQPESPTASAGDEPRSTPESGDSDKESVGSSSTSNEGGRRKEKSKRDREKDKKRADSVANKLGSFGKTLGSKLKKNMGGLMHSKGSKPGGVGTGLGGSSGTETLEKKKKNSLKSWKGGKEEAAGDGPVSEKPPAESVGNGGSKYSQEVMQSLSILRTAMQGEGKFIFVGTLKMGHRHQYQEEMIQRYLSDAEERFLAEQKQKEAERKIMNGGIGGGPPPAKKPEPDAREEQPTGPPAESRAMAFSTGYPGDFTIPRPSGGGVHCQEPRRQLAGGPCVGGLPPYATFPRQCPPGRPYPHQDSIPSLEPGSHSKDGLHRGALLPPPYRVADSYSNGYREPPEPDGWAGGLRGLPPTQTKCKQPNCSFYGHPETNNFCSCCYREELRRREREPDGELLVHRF

[6] = target: T4, CYLD (Homo sapiens, UniProt Q9NQC7); test: as above; type: binding
T4 sequence (Q9NQC7 1-956): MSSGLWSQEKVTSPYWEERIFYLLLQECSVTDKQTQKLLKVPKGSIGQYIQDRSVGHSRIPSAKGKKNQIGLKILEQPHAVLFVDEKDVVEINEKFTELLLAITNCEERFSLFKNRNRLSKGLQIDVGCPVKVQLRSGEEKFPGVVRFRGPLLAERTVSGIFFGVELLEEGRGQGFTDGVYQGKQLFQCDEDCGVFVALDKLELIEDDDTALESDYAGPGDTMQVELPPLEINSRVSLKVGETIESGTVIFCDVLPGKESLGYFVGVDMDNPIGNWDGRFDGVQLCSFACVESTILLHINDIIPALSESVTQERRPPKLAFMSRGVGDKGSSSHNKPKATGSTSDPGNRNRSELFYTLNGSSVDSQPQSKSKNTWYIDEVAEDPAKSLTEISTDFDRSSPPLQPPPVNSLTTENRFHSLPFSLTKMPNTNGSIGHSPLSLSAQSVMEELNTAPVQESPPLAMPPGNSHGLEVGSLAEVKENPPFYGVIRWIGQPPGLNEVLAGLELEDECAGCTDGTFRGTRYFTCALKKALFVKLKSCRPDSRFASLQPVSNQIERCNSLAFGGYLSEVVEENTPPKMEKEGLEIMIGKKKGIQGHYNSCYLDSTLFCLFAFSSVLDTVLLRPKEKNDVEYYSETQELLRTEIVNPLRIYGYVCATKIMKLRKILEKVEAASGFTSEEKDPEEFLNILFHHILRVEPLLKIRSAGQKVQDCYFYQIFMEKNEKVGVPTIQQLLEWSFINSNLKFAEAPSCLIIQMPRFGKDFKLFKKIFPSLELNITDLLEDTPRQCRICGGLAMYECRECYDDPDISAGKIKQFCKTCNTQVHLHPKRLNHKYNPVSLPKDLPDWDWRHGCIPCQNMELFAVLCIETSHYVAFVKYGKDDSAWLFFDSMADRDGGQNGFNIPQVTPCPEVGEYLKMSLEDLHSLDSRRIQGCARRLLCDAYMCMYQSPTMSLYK

[7] = target: Ataxin-3 (Homo sapiens, UniProt P54252); test: as above; type: binding
Chain of Ataxin-3 (P54252 whole entry, species assumed): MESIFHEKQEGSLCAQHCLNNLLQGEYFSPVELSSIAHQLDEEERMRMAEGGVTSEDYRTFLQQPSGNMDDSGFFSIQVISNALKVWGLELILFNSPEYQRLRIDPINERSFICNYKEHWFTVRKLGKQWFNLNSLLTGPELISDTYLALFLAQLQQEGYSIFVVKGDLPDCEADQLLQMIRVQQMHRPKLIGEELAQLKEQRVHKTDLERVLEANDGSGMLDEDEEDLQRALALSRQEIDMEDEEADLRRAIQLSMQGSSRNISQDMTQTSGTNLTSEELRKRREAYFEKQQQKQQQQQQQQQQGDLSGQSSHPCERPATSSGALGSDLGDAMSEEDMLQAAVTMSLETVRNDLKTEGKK

CC(C)[C@H](NC(=O)OCc1ccccc1)C(=O)N[C@@H](C)C(=O)N[C@@H](C)C(=O)CF [Z-VA-L-A-fink] (Cbz-Val-Ala-Ala-CH2F)
Inhibition of UL36 (HA band of UL36 bound to HA tagged Ub-VME probe decreases or disappears) [1]: specifically inhibited | Inhibition of UCH-1 [2]: did not inhibit | Inhibition of UCH-3 [3]: did not inhibit | Inhibition of USP7 [4]: did not inhibit | Inhibition of Cezanne [5]: did not inhibit | Inhibition of CYLD [6]: did not inhibit | Inhibition of Ataxin-3 [7]: did not inhibit

— patent US20070092942A1, “Ubiquitin specific enzymes of family herpesviridae” (priority 2005, published 2007)
